The values below come from patent US4937266A, “Inhibitory agent of hepatic fibrosis” (priority 1988, dated 1990).

Assay [1] deals with prolyl hydroxylase. Particulars: rabbit, in vivo.
Source text: Male Japanese white rabbits weighing 2.5 kg were used. A cholesterol group consisting of 8 rabbits were fed on RC-4 diet (sold by Oriental Kobo Co., Ltd.) containing 0.5% cholesterol for 10 weeks. […] A control group consisting of 3 rabbits were fed on RC-4 diet for the same period.
The rabbits were sacrificed by exsangunation from abdominal aorta under anesthesia with pentobarbital and the liver and kidney were removed. A portion of the each organ was homogenized with 9 times the volume of a 0.01M Tris-hydrochloric acid buffer solution (pH 7.4) containing 10^-5 M EDTA and 10^-4 M DTT in Polytron homogenizer. The prolyl hydroxylase activity was expressed as radioactivity of ^3 H2 O released per milligram of protein when ^3 H-proline labeled unhydroxylated collagen was incubated as a substrate for 30 minutes. […] Incubation was carried out at 30° C. for 30 minutes. 100 μl of a 55% trichloroacetic acid aqueous solution was added thereto to stop the reaction. The ^3 H2 O of the reaction mixture was separated by vacuum distillation of the whole reaction mixture. An aliquot (800 μl) of the distillate was mixed with 10 ml of Aquasol and counted for the radioactivity in a liquid scintillation counter. The protein amount was measured by BIO.RAD Protein Assay Kit using bovine serum albumin (BSA) as a standard.
In assay [2] the test system is medicinal fatty liver. As to conditions: reported in JP-B-No. 60-19891; cited from earlier work.
Assay [3] concerns viral hepatitis. Particulars: reported in JP-A-No. 58-35118; cited from earlier work.

As to `CC(C)(CO)[C@@H](O)C(=O)NCCC(=O)NCCSSCCNC(=O)CCNC(=O)[C@H](O)C(C)(C)CO` [Pantethine, D-bis-(N-pantothenyl-β-aminoethyl)-disulfide], in assay [1], the “Prolyl Hydroxylase Activity, Liver” value stood at 729.3 ± 45.6 cpm/mg-protein and the “prolyl hydroxylase activity in the liver (in words)” value is on record as “decreased nearly to the level of the normal group”. In addition, the “effect on medicinal fatty liver (in words)” value in assay [2] is “effective”. Besides, the “effect on viral hepatitis (in words)” value in assay [3] was “effective”.
